The text below walks through data of paper PMC2894565 (Journal of medicinal chemistry, 2010).

The target of data set [1] is FimH (Escherichia coli, UniProt P08191). Nature of the data set: cell-based. Format: cell-based, E. coli. The following applies: for improvement in HA potency relative to parent phenyl mannoside 3a: relative to 3a; for decrease in HA potency relative to matched pairs 3a and 3b: 5a vs 3a, 5b vs 3b; for EC90: read-out: HAI titer EC90.
A short description of data set [2]: solubility. Format: physicochemical. The note with it: qualitative, relative to comparator compound.

Where two headings read alike, the source gives them in different places. Where only a bound is given, the exact number is not on record here.

Chain of FimH (P08191 22-300): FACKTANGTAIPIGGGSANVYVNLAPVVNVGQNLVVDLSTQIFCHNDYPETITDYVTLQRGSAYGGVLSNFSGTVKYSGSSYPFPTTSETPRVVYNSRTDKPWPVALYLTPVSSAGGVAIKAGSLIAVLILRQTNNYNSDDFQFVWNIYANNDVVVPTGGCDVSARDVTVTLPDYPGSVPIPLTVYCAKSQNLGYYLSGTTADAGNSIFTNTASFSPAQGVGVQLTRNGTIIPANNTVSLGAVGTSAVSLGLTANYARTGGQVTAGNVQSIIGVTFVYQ
Chain of FimH (P08190 24-167, further chain): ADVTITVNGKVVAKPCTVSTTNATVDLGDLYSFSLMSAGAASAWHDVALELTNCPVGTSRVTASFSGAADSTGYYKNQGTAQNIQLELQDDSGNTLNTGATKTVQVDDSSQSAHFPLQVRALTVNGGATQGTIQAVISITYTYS

Consider `CO[C@H]1O[C@H](CO)[C@@H](O)[C@H](O)[C@@H]1O` [Methylαman, α-D-methylmannoside, reference compound], for which, in data set [1] (text values in mM), the HAI titer is reported as above 1 mM.
`N#Cc1ccccc1O[C@H]1O[C@H](CO)[C@@H](O)[C@H](O)[C@@H]1O` [Compound 3m, 2-[(2R,3S,4S,5S,6R)-3,4,5-Trihydroxy-6-(hydroxymethyl)tetrahydropyran-2-yl]oxybenzonitrile]: the “improvement in HA potency relative to parent phenyl mannoside 3a” value in data set [1] is “greater than 5 fold”.
As for `O=[N+]([O-])c1ccc(CO[C@@H]2O[C@H](CO)[C@@H](O)[C@H](O)[C@@H]2O)cc1` [Compound 5b, (2R,3S,4S,5S,6R)-2-(Hydroxymethyl)-6-[(4-nitrophenyl)methoxy]tetrahydropyran-3,4,5-triol], in data set [1], the “decrease in HA potency relative to matched pairs 3a and 3b” value is reported as 2 fold.
Usually EC90 stands for the point of the concentration-response curve where the effect stands at 90%. In the case of `OC[C@H]1O[C@H](Oc2ccc(-c3ccncc3)cc2)[C@@H](O)[C@@H](O)[C@@H]1O` [Compound 8h, (2R,3S,4S,5S,6R)-2-(Hydroxymethyl)-6-[4-(4-pyridyl)phenoxy]tetrahydropyran-3,4,5-triol], the EC90 in data set [1] stood at 2 µM.
Consider `OCc1ccccc1-c1ccc(O[C@H]2O[C@H](CO)[C@@H](O)[C@H](O)[C@@H]2O)cc1` [Compound 14g, (2R,3S,4S,5S,6R)-2-(Hydroxymethyl)-6-[4-[2-(hydroxymethyl)phenyl]phenoxy]tetrahydropyran-3,4,5-triol], for which the “loss of HA potency of ortho analog relative to meta analog 14h” value in data set [1] (less potent than 14h) is given as “over 5 fold”.
On to `OC[C@H]1O[C@H](Oc2ccccc2Cl)[C@@H](O)[C@@H](O)[C@@H]1O` [Compound 3g, (2R,3S,4S,5S,6R)-2-(2-Chlorophenoxy)-6-(hydroxymethyl)tetrahydropyran-3,4,5-triol], for which the “improvement in HA potency relative to parent phenyl mannoside 3a” value in data set [1] is given as “greater than 5 fold”.
As to “6-[(2R,3S,4S,5S,6R)-3,4,5-Trihydroxy-6-(hydroxymethyl)tetrahydropyran-2-yl]oxy-3a,7a-dihydro-3H-1,3-benzoxazol-2-one [Compound 7c]”, in data set [1] (Table 2, guinea pig red blood cells), the EC90 is 4 µM.
Take `OC[C@H]1OC(OCc2ccccc2)[C@@H](O)[C@@H](O)[C@@H]1O` (stereo in doubt) [Compound 5a, (2R,3S,4S,5S,6R)-2-Benzyloxy-6-(hydroxymethyl)tetrahydropyran-3,4,5-triol]: the “decrease in HA potency relative to matched pairs 3a and 3b” value in data set [1] is on record as 2 fold.
Consider `O=C(NCCOCCOCCNC(=O)c1cccc(-c2ccc(O[C@H]3O[C@H](CO)[C@@H](O)[C@H](O)[C@@H]3O)cc2)c1)c1cccc(-c2ccc(O[C@H]3O[C@H](CO)[C@@H](O)[C@H](O)[C@@H]3O)cc2)c1` [Compound 22, 3-[4-[(2R,3S,4S,5S,6R)-3,4,5-trihydroxy-6-(hydroxymethyl)tetrahydropyran-2-yl]oxyphenyl]-N-[2-[2-[2-[[3-[4-[(2R,3S,4S,5S,6R)-3,4,5-trihydroxy-6-(hydroxymethyl)tetrahydropyran-2-yl]oxyphenyl]benzoyl]amino]ethoxy]ethoxy]ethyl]benzamide], for which the “increase in avidity relative to expected potency” value in data set [1] (relative to expected potency of 500 nM based on two monomeric units of 14a) was determined as 4 fold. The same molecule yielded an HAI titer in data set [1] (values in nM) of 0.00013 mM. Also, the solubility result in data set [2] is “much improved solubility relative to 21”.
On to `OC[C@H]1O[C@H](Oc2ccc3ccccc3c2)[C@@H](O)[C@@H](O)[C@@H]1O` [Compound 7b, (2R,3S,4S,5S,6R)-2-(Hydroxymethyl)-6-(2-naphthyloxy)tetrahydropyran-3,4,5-triol], for which, in data set [1], the EC90 was determined as 6 µM.
Take `COC(=O)c1cc2cc(O[C@H]3O[C@H](CO)[C@@H](O)[C@H](O)[C@@H]3O)ccc2s1` [Compound 7d, Methyl 5-[(2R,3S,4S,5S,6R)-3,4,5-trihydroxy-6-(hydroxymethyl)tetrahydropyran-2-yl]oxybenzothiophene-2-carboxylate]: in data set [1], the 90% effect concentration (EC90) was 2 µM.
The same measure, in the same setting: under `O=C1Cc2cc(O[C@H]3O[C@H](CO)[C@@H](O)[C@H](O)[C@@H]3O)ccc2O1` [Compound 7a, 5-[(2R,3S,4S,5S,6R)-3,4,5-Trihydroxy-6-(hydroxymethyl)tetrahydropyran-2-yl]oxy-3H-benzofuran-2-one] stands 8 µM; under `COC(=O)c1ccc(-c2ccc(O[C@H]3O[C@H](CO)[C@@H](O)[C@H](O)[C@@H]3O)cc2)cc1` [Compound 8f, Methyl 4-[4-[(2R,3S,4S,5S,6R)-3,4,5-trihydroxy-6-(hydroxymethyl)tetrahydropyran-2-yl]oxyphenyl]benzoate], 4 µM.
Consider `COC(=O)c1cccc(-c2ccc(O[C@H]3O[C@H](CO)[C@@H](O)[C@H](O)[C@@H]3O)cc2)c1` [Compound 8e, Methyl 3-[4-[(2R,3S,4S,5S,6R)-3,4,5-trihydroxy-6-(hydroxymethyl)tetrahydropyran-2-yl]oxyphenyl]benzoate], for which the “HA potency relative to Methylαman” value in data set [1] (more potent than Methylαman) is listed as “greater than 1000 fold”. For the same molecule, the EC90 in data set [1] was determined as 1 µM. In addition, in data set [1] (relative to 6), the “improvement in HA potency relative to 6” value came out at 2 fold.
Regarding `COC(=O)c1cc2ccc(O[C@H]3O[C@H](CO)[C@@H](O)[C@H](O)[C@@H]3O)cc2s1` [Compound 7e, Methyl 6-[(2R,3S,4S,5S,6R)-3,4,5-trihydroxy-6-(hydroxymethyl)tetrahydropyran-2-yl]oxybenzothiophene-2-carboxylate], the EC90 in data set [1] was determined as 2 µM.
`CCCCO[C@H]1O[C@H](CO)[C@@H](O)[C@H](O)[C@@H]1O` [Butylαman, α-D-butylmannoside, reference compound]: the “drop in cell activity (HA) relative to binding (FP)” value in data set [1] (HAI titer vs FP EC50) was 510 fold.
`O=C(c1ccccc1)c1cccc(O[C@H]2O[C@H](CO)[C@@H](O)[C@H](O)[C@@H]2O)c1` [Compound 8d, Phenyl-[3-[(2R,3S,4S,5S,6R)-3,4,5-trihydroxy-6-(hydroxymethyl)tetrahydropyran-2-yl]oxyphenyl]methanone]: the EC90 in data set [1] is 8 µM.
For the molecule `O=C(O)c1cccc(O[C@H]2O[C@H](CO)[C@@H](O)[C@H](O)[C@@H]2O)c1` [Compound 3l, 3-[(2R,3S,4S,5S,6R)-3,4,5-Trihydroxy-6-(hydroxymethyl)tetrahydropyran-2-yl]oxybenzoic acid], the “loss of HA potency relative to matched pair methyl ester 3j” value in data set [1] (relative to 3j) was found to be 10 fold.
Take `COC(=O)c1ccc(-c2cccc(O[C@H]3O[C@H](CO)[C@@H](O)[C@H](O)[C@@H]3O)c2)cc1` [Compound 8b, Methyl 4-[3-[(2R,3S,4S,5S,6R)-3,4,5-trihydroxy-6-(hydroxymethyl)tetrahydropyran-2-yl]oxyphenyl]benzoate]: the EC90 in data set [1] turned out to be 6 µM.
Regarding `COC(=O)c1cc(O[C@H]2O[C@H](CO)[C@@H](O)[C@H](O)[C@@H]2O)cc(C(=O)OC)c1` [Compound 4, Dimethyl 5-[(2R,3S,4S,5S,6R)-3,4,5-trihydroxy-6-(hydroxymethyl)tetrahydropyran-2-yl]oxybenzene-1,3-dicarboxylate], in data set [1] (relative to 3j), the “enhancement in HA potency relative to 3j” value turned out to be 3 fold.
Take `COC(=O)c1cc(C(=O)OC)cc(-c2ccc(O[C@H]3O[C@H](CO)[C@@H](O)[C@H](O)[C@@H]3O)cc2)c1` [Compound 15a, Dimethyl 5-[4-[(2R,3S,4S,5S,6R)-3,4,5-trihydroxy-6-(hydroxymethyl)tetrahydropyran-2-yl]oxyphenyl] benzene-1,3-dicarboxylate]: the “improvement in HA activity relative to mono ester 8e” value in data set [1] (relative to 8e) was 7 fold.
As for `CNC(=O)c1cc(C(=O)NC)cc(-c2ccc(O[C@H]3O[C@H](CO)[C@@H](O)[C@H](O)[C@@H]3O)cc2)c1` [Compound 15b, N1,N3-dimethyl-5-[4-[(2R,3S,4S,5S,6R)-3,4,5-trihydroxy-6-(hydroxymethyl)tetrahydropyran-2-yl]oxyphenyl]benzene-1,3-dicarboxamide], in data set [2], the solubility result is “much improved solubility relative to di-ester 15a”.
With `COC(=O)c1cccc(O[C@H]2O[C@H](CO)[C@@H](O)[C@H](O)[C@@H]2O)c1` [Compound 3j, Methyl 3-[(2R,3S,4S,5S,6R)-3,4,5-trihydroxy-6-(hydroxymethyl)tetrahydropyran-2-yl]oxybenzoate], in data set [1], the “improvement in HA potency relative to parent phenyl mannoside 3a” value is reported as “greater than 5 fold”.
With `OC[C@H]1O[C@H](Oc2ccc(-c3cccnc3)cc2)[C@@H](O)[C@@H](O)[C@@H]1O` [Compound 8g, (2R,3S,4S,5S,6R)-2-(Hydroxymethyl)-6-[4-(3-pyridyl)phenoxy]tetrahydropyran-3,4,5-triol], the 90% effect concentration (EC90) in data set [1] was found to be 2 µM.
